This note sets out measurements from patent US20240182431A1, “NEW CONTRAST AGENT FOR USE IN MAGNETIC RESONANCE IMAGING” (Bayer Aktiengesellschaft, priority 2021, published 2024).

The first data set in a line: Partition coefficient (logP butanol/buffer). It counts as physicochemical. Particulars: 1-butanol / 50 mM Tris-HCl, pH 7.4, room temperature.
Consider `CCOCCOCCOc1ccc(CCC[C@@H](C(=O)O)N2CCN(C(CO)C(=O)[O-])CCN(C(CO)C(=O)[O-])CCN(C(CO)C(=O)[O-])CC2)cc1.[Gd+3]` (mixture of isomers) [Example 21, gadolinium-2,2′,2″-{10-[(1S)-1-carboxy-4-{4-[2-(2-ethoxyethoxy)ethoxy]phenyl}butyl]-1,4,7,10-tetraazacyclododecane-1,4,7-triyl}tris(3-hydroxypropanoate)], for which the “Log P (butanol/buffer)” value is −1.03.
Consider `O=C([O-])CN1CCN(C(Cc2ccc(OCC(F)(F)C(F)F)cc2)C(=O)O)CCN(CC(=O)[O-])CCN([C@@H](CO)C(=O)[O-])CC1.[Gd+3]` (mixture of isomers) [Example 33, gadolinium (2S)-2-[4,10-bis(carboxylatomethyl)-7-{1-carboxy-2-[4-(2,2,3,3-tetrafluoropropoxy)phenyl]ethyl}-1,4,7,10-tetraazacyclododecan-1-yl]-3-hydroxypropanoate], for which the “Log P (butanol/buffer)” value is −0.55.
For `CCOCCOCCOc1ccc(CC(C(=O)O)N2CCN(CC(=O)[O-])CCN(C(C)C(=O)[O-])CCN(CC(=O)[O-])CC2)cc1.[Gd+3]` (single isomer, unassigned) [Example 5, gadolinium 2-[7-(1-carboxy-2-{4-[2-(2-ethoxyethoxy)ethoxy]phenyl}ethyl)-4,10-bis(carboxylatomethyl)-1,4,7,10-tetraazacyclododecan-1-yl]propanoate], the “Log P (butanol/buffer)” value was −1.52.
In the case of `CCOCCOCCOc1ccc(CC(C(=O)O)N2CCN(CC(=O)[O-])CCN(C(C)C(=O)[O-])CCN(CC(=O)[O-])CC2)cc1.[Gd+3]` (single isomer, unassigned) [Example 6, gadolinium 2-[7-(1-carboxy-2-{4-[2-(2-ethoxyethoxy)ethoxy]phenyl}ethyl)-4,10-bis(carboxylatomethyl)-1,4,7,10-tetraazacyclododecan-1-yl]propanoate], the “Log P (butanol/buffer)” value was −1.44.
For `CCOCCOc1ccc(CC(C(=O)O)N2CCN(CC(=O)[O-])CCN(C(CC)C(=O)[O-])CCN(CC(=O)[O-])CC2)cc1.[Gd+3]` (single isomer, unassigned) [Example 7, gadolinium 2-[7-{1-carboxy-2-[4-(2-ethoxyethoxy)phenyl]ethyl}-4,10-bis(carboxylatomethyl)-1,4,7,10-tetraazacyclododecan-1-yl]butanoate], the “Log P (butanol/buffer)” value is reported as −1.09.
Still for that read-out and setting: to `CCOCCOc1ccc(CC(C(=O)O)N2CCN(CC(=O)[O-])CCN(C(CC)C(=O)[O-])CCN(CC(=O)[O-])CC2)cc1.[Gd+3]` (single isomer, unassigned) [Example 8, gadolinium 2-[7-{1-carboxy-2-[4-(2-ethoxyethoxy)phenyl]ethyl}-4,10-bis(carboxylatomethyl)-1,4,7,10-tetraazacyclododecan-1-yl]butanoate] belongs −1.04; to `CCOCCOCCOc1ccc(CC(C(=O)O)N2CCN(CC(=O)[O-])CCN(CC(=O)[O-])CCN(CC(=O)[O-])CC2)cc1.[Gd+3]` (stereo not shown) [Example 2, gadolinium 2,2′,2″-{10-[1-carboxy-2-{4-[2-(2-ethoxyethoxy)ethoxy]phenyl}ethyl]-1,4,7,10-tetraazacyclododecane-1,4,7-triyl}triacetate], −1.63; to `CCOCCOCCOc1ccc(C[C@@H](C(=O)O)N2CCN(CC(=O)[O-])CCN(CC(=O)[O-])CCN(CC(=O)[O-])CC2)cc1.[Gd+3]` [Example 3, gadolinium 2,2′,2″-{10-[(1S)-1-carboxy-2-{4-[2-(2-ethoxyethoxy)ethoxy]phenyl}ethyl]-1,4,7,10-tetraazacyclododecane-1,4,7-triyl}triacetate], −1.61.
Consider `CCOCCOCCOc1ccc(C[C@H](C(=O)O)N2CCN(CC(=O)[O-])CCN(CC(=O)[O-])CCN(CC(=O)[O-])CC2)cc1.[Gd+3]` [Example 4, gadolinium 2,2′,2″-{10-[(1R)-1-carboxy-2-{4-[2-(2-ethoxyethoxy)ethoxy]phenyl}ethyl]-1,4,7,10-tetraazacyclododecane-1,4,7-triyl}triacetate], for which the “Log P (butanol/buffer)” value is reported as −1.61.
For `CCCCOc1ccc(CCCC[C@@H](C(=O)O)N2CCN([C@@H](CO)C(=O)[O-])CCN([C@@H](CO)C(=O)[O-])CCN([C@@H](CO)C(=O)[O-])CC2)cc1.[Gd+3]` [Example 9, gadolinium (2S,2′S,2″S)-2,2′,2″-{10-[(1S)-5-(4-butoxyphenyl)-1-carboxypentyl]-1,4,7,10-tetraazacyclododecane-1,4,7-triyl}tris(3-hydroxypropanoate)], the “Log P (butanol/buffer)” value stood at 0.26.
Same read-out and setting: the result for `CCOCCOCCOCCOc1ccc(CC(C(=O)O)N2CCN(CC(=O)[O-])CCN(CC(=O)[O-])CCN(CC(=O)[O-])CC2)cc1.[Gd+3]` (stereo not shown) [Example 10, gadolinium 2,2′,2″-{10-[1-carboxy-2-(4-{2-[2-(2-ethoxyethoxy)ethoxy]ethoxy}phenyl)ethyl]-1,4,7,10-tetraazacyclododecane-1,4,7-triyl}triacetate] reads −1.70.
The same measure, in the same setting: the result for `CCOCCOCCOCCOc1ccc(C[C@@H](C(=O)O)N2CCN(CC(=O)[O-])CCN(CC(=O)[O-])CCN(CC(=O)[O-])CC2)cc1.[Gd+3]` [Example 11, gadolinium 2,2′,2″-{10-[(1S)-1-carboxy-2-(4-{2-[2-(2-ethoxyethoxy)ethoxy]ethoxy}phenyl)ethyl]-1,4,7,10-tetraazacyclododecane-1,4,7-triyl}triacetate] reads −1.68.
For the compound `CCOCCOCCOCCOc1ccc(C[C@H](C(=O)O)N2CCN(CC(=O)[O-])CCN(CC(=O)[O-])CCN(CC(=O)[O-])CC2)cc1.[Gd+3]` [Example 12, gadolinium 2,2′,2″-{10-[(1R)-1-carboxy-2-(4-{2-[2-(2-ethoxyethoxy)ethoxy]ethoxy}phenyl)ethyl]-1,4,7,10-tetraazacyclododecane-1,4,7-triyl}triacetate], the “Log P (butanol/buffer)” value is listed as −1.68.
Still for that read-out and setting: to `CCOCCOCCOCCOc1ccc(CC(C(=O)O)N2CCN(CC(=O)[O-])CCN(C(COC)C(=O)[O-])CCN(CC(=O)[O-])CC2)cc1.[Gd+3]` (stereo not shown) [Example 13, gadolinium 2-{7-[1-carboxy-2-(4-{2-[2-(2-ethoxyethoxy)ethoxy]ethoxy}phenyl)ethyl]-4,10-bis(carboxylatomethyl)-1,4,7,10-tetraazacyclododecan-1-yl}-3-methoxypropanoate] belongs −1.53.
`CCCCOc1ccc(CC(C(=O)O)N2CCN(CC(=O)[O-])CCN(CC(=O)[O-])CCN(CC(=O)[O-])CC2)cc1.[Gd+3]` (stereo not shown) [Example 14, gadolinium 2,2′,2″-{10-[2-(4-butoxyphenyl)-1-carboxyethyl]-1,4,7,10-tetraazacyclododecane-1,4,7-triyl}triacetate]: the “Log P (butanol/buffer)” value is recorded as −0.38.

Still in this data set, the particulars now being: pH 7.4.
For `CCOCCOCCOc1ccc(CCC[C@@H](C(=O)O)N2CCN(C(CCO)C(=O)[O-])CCN(C(CCO)C(=O)[O-])CCN(C(CCO)C(=O)[O-])CC2)cc1.[Gd+3]` (mixture of isomers) [Example 36, gadolinium-2,2′-{4-[(1S)-1-carboxy-4-{4-[2-(2-ethoxyethoxy)ethoxy]phenyl}butyl]-10-[1-carboxylato-3-hydroxypropyl]-1,4,7,10-tetraazacyclododecane-1,7-diyl}bis(4-hydroxybutanoate)], the “Log P (butanol/buffer)” value is −1.08.
